# How the values were obtained:
# [1] = Encapsulation efficiency of lipid nanoparticles (Quant-it Ribogreen RNA quantification assay); format: physicochemical; settings: LNP encapsulating hEPO mRNA; Table 3
# How it was run: (§1)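 Ribogreen fluorescence quantifies encapsulated mRNA and backscatter (173°) DLS sizes the particles. These are microfluidically mixed four-component LNPs in DPBS after dialysis.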
# [2] = Apparent pKa of LNP formulations (TNS fluorescence assay); settings: LNP cationic lipid/DSPC/cholesterol/DMG-PEG 50/10/38.5/1.5 mol %, Table 3
# [3] = tested on: human erythropoietin (hEPO) mRNA; assay: Animal study: hEPO expression after tail vein injection of LNPs encapsulating hEPO mRNA (serum ELISA); format: in vivo; settings: hEPO level, female ICR mice, 0.5 mg/kg, 6 hours post administration, class symbols, Table 3
# How it was run: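 Female ICR mice (6-8 weeks) received LNPs carrying hEPO mRNA by tail vein injection at 0.5 mg/kg, with MC3 LNPs dosed the same way as positive control. Blood was drawn at set times (e.g., 6 h) and serum separated. hEPO was quantified by ELISA and reported as μg/ml.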
# [4] = Lipid nanoparticle size by dynamic light scattering (Malvern Zetasizer Nano ZS); format: physicochemical; settings: LNP: cationic lipid/DSPC/cholesterol/PEG-lipid 50:10:38.5:1.5, hEPO mRNA; Table 3
# How it was run: as §1
Structure (SMILES),Encapsulation Efficiency [1] [%],Apparant Pka [2],Expression at 6 h (μg/ml) [3],polydispersity [4],size nm [4] [nm]
CCCCCCCCC(CCCCCC)C(CC)OC(=O)CCCCCN(CCCCCC(=O)OC(CC)C(CCCCCC)CCCCCCCC)CCN(CCO)C1CCC1 (stereo not shown) [Compound 39],98.8,6.061,C (≥0.1 and <1),0.043,64.4
CCCCCCCCCCC(CCCCCC)COC(=O)CCCN(CCCC(=O)OCC(CCCCCC)CCCCCCCCCC)CCN(CCO)C1CCC1 (stereo not shown) [Compound 41],97.5,5.93,C (≥0.1 and <1),0.054,64.04
CCCCCCCCCCC(CCCCCC)COC(=O)CCCCN(CCCCC(=O)OCC(CCCCCC)CCCCCCCCCC)CCN(CCO)C1CCC1 (stereo not shown) [Compound 42],96.4,6.196,C (≥0.1 and <1),0.065,65.63
CCCCCCCCC(CCCCCC)C(=O)OCCCCCCCCCN(CCCCCCCCCOC(=O)C(CCCCCC)CCCCCCCC)CCN(CCO)C1CCC1 (stereo not shown) [Compound 44],97.5,6.049,B (≥1 and <2),0.063,83.85
CCCCCC/C=C\COC(=O)CCCCCN(CCCC(=O)OC(CCCCCCC)CCCCCCC)CCN(CCO)C1CCC1 [Compound 46],93.8,6.307,C (≥0.1 and <1),0.073,110.4
CCCCCCC(CCCCCC)COC(=O)CCCCCN(CCCCCC(=O)OCC(CCCCCC)CCCCCC)CCN(CCO)C1CCC1 [Compound 48],91.80,6.347,A (≥2),0.065,72.52
CCCCCCCC(CCCCCCC)COC(=O)CCCCCN(CCCCCC(=O)OCC(CCCCCCC)CCCCCCC)CCN(CCO)C1CCC1 [Compound 49],94.1,6.249,A (≥2),0.075,65.13
CCCCCCCCC(CCCCCCCC)COC(=O)CCCCCN(CCCCCC(=O)OCC(CCCCCCCC)CCCCCCCC)CCN(CCO)C1CCC1 [Compound 50],94.90,6.143,A (≥2),0.085,67.68
CCCCCCCCCC(CCCCCCCCC)COC(=O)CCCCCN(CCCCCC(=O)OCC(CCCCCCCCC)CCCCCCCCC)CCN(CCO)C1CCC1 [Compound 51],94.10,6.093,A (≥2),0.073,59.73
CCCCCCCCC(CCCCCC)COC(=O)CCCCCN(CCCCCC(=O)OCC(CCCCCC)CCCCCCCC)CCN(CCC)C1CCC(O)CC1 (stereo not shown) [Compound 56],96.4,6.466,A (≥2),0.07,85.46
CCCCCCCCC(CCCCCC)COC(=O)CCCCCN(CCCCCC(=O)OCC(CCCCCC)CCCCCCCC)CCN(C(C)C)C1CCC(O)CC1 (stereo not shown) [Compound 57],96.1,6.645,A (≥2),0.063,93.52
CCCCCCCCC(CCCCCC)COC(=O)CCCCCN(CCCCCC(=O)OCC(CCCCCC)CCCCCCCC)CCN(CCCC)C1CCC(O)CC1 (stereo not shown) [Compound 58],90.7,6.364,A (≥2),0.067,74.68
CCCCCCCCC(CCCCCC)COC(=O)CCCCCN(CCCCCC(=O)OCC(CCCCCC)CCCCCCCC)CCN(C)C1CC(O)C1 (stereo not shown) [Compound 59],97.7,6.682,B (≥1 and <2),0.008,93.24
CCCCCCCCC(CCCCCC)COC(=O)CCCCCN(CCCCCC(=O)OCC(CCCCCC)CCCCCCCC)CCN(CCC)C1CC(O)C1 (stereo not shown) [Compound 60],92.1,6.329,B (≥1 and <2),0.086,68.6
CCCCC/C=C\CCCOC(=O)CCCCCN(CCCCCC(=O)OCCC/C=C\CCCCC)CCN(CCO)C1CCC1 [Compound 62],36.2,6.438,D (<0.1),0.156,244.8
CCCCC/C=C\CCCC(CCC/C=C\CCCCC)OC(=O)CCCCCN(CCCCCC(=O)OCCC/C=C/CCCCC)CCN(CCO)C1CCC1 [Compound 63],85.9,6.406,B (≥1 and <2),0.088,94.11
CCCCCCCCC(CCCCCCCC)COC(=O)CCCCCN(CCCCCC(=O)OCC(CCCCCCCC)CCCCCCCC)CCN(CCO)C1CCCOC1 (stereo not shown) [Compound 65],93.0,6.544,A (≥2),0.066,63.83
CCCCC/C=C\CCCC(CCC/C=C\CCCCC)COC(=O)CCCCCN(CCCCCC(=O)OCC(CCC/C=C\CCCCC)CCC/C=C\CCCCC)CCN(CCO)C1CCC1 [Compound 66],80.0,6.036,B (≥1 and <2),0.064,63.86
CCCCCCCCC(CCCCCCCC)COC(=O)CCCCCN(CCCCCC(=O)OCC(CCCCCCCC)CCCCCCCC)CCN(CCCC)C1CCC(O)CC1 (stereo not shown) [Compound 67],79.3,6.341,B (≥1 and <2),0.05,64.75
CCCCCCCCC(CCCCCCCC)COC(=O)CCCCCN(CCCCCC(=O)OCC(CCCCCCCC)CCCCCCCC)CCN(CCC)C1CCCC1O (stereo not shown) [Compound 68],80.1,6.279,C (≥0.1 and <1),0.052,56.96
CCCCCCCCC(CCCCCCCC)COC(=O)CCCCCN(CCCCCC(=O)OCC(CCCCCCCC)CCCCCCCC)CCN(CCC)C1CCC(O)CC1 (stereo not shown) [Compound 70],84.3,6.381,A (≥2),0.034,77.54
CCCCCCCC(CCCCCCC)COC(=O)CCCCCN(CCCCCC(=O)OCC(CCCCCCC)CCCCCCC)CCN(CCC)C1CCC(O)CC1 (stereo not shown) [Compound 71],93.0,6.613,A (≥2),0.038,91.13
CCCCCCC(CCCCCC)COC(=O)CCCCCN(CCCCCC(=O)OCC(CCCCCC)CCCCCC)CCN(CCC)C1CCC(O)CC1 (stereo not shown) [Compound 72],93.5,6.712,A (≥2),0.109,113.9
CCCCCCCCC(CCCCCCCC)COC(=O)CCCCCN(CCCCCC(=O)OCC(CCCCCCCC)CCCCCCCC)CCN(CCCCC)C1CCC(O)CC1 (stereo not shown) [Compound 74],93.2,6.2,B (≥1 and <2),0.076,54.58
CCCCCCC(CCCCCC)COC(=O)CCCCCN(CCCCCC(=O)OCC(CCCCCC)CCCCCC)CCN(CCO)C1CCC1 [Compound 77],90.06,6.352,A (≥2),0.038,69.81
CCCCCCCCC(CCCCCCCC)COC(=O)CCCCCN(CCCCCC(=O)OCC(CCCCCCCC)CCCCCCCC)CCN(CCO)C1CC(F)(F)C1 [Compound 79],89.2,5.735,C (≥0.1 and <1),0.154,52.19
CCCCCCCCCCCOC(=O)CCCCCN(CCCCCC(=O)OCC(CCCCCCCC)CCCCCCCC)CCN(CCO)C1CC1 [Compound 80],85.2,6.201,B (≥1 and <2),0.06,76.71
CCCCCCCCCCCOC(=O)CCCCCN(CCCCCC(=O)OCC(CCCCCCCC)CCCCCCCC)CCN(CCO)C1CCC1 [Compound 81],94.6,6.476,A (≥2),0.028,75.89
CCCCCCCCCCCOC(=O)CCCCCN(CCCCCC(=O)OCC(CCCCCCCC)CCCCCCCC)CCN(CCO)C1CCCC1 [Compound 82],94.7,6.406,A (≥2),0.025,87.68
